In patent US12661382B2, “Method for obtaining oleocanthal type secoiridoids and for producing respective pharmaceutical preparations” (OMPHAX SA, priority 2019, dated 2026):

Experiment: water solubility
Assay type: physicochemical

Water solubility with respect to substances (1-6), greatly increased water solubility:
5S-(E)-oleomissionadiol [Substance 9]
oleuropeinediol [Substance 11]
S-(E)-oleocanthadiol [Substance 7]
ligstrodiol [Substance 12]
5S-(E)-oleokoronadiol [Substance 10]
S-(E)-oleaceinediol [Substance 8]
